BigSolDB 2.1

## O=Cc1ccc(O)cc1
In 1,4-dioxane, 283.15 K
  solubility (mole fraction): 0.0467
In 1,4-dioxane, 285.65 K
  solubility (mole fraction): 0.0555
In 1,4-dioxane, 288.15 K
  solubility (mole fraction): 0.0655
In 1,4-dioxane, 290.65 K
  solubility (mole fraction): 0.0772
In 1,4-dioxane, 293.15 K
  solubility (mole fraction): 0.0905
In 1,4-dioxane, 295.65 K
  solubility (mole fraction): 0.106
In 1,4-dioxane, 298.15 K
  solubility (mole fraction): 0.123
In 1,4-dioxane, 300.65 K
  solubility (mole fraction): 0.141
In 1,4-dioxane, 303.15 K
  solubility (mole fraction): 0.163
In 1,4-dioxane, 305.65 K
  solubility (mole fraction): 0.186
In 1,4-dioxane, 308.15 K
  solubility (mole fraction): 0.211
In 1,4-dioxane, 310.65 K
  solubility (mole fraction): 0.238
In 1,4-dioxane, 313.15 K
  solubility (mole fraction): 0.267
In 1,4-dioxane, 315.65 K
  solubility (mole fraction): 0.299
In 1,4-dioxane, 318.15 K
  solubility (mole fraction): 0.334
In 2-butanone, 278.15 K
  solubility (mole fraction): 0.0731
In 2-butanone, 280.65 K
  solubility (mole fraction): 0.0822
In 2-butanone, 283.15 K
  solubility (mole fraction): 0.0911
In 2-butanone, 285.65 K
  solubility (mole fraction): 0.101
In 2-butanone, 288.15 K
  solubility (mole fraction): 0.111
In 2-butanone, 290.65 K
  solubility (mole fraction): 0.123
In 2-butanone, 293.15 K
  solubility (mole fraction): 0.135
In 2-butanone, 295.65 K
  solubility (mole fraction): 0.148
In 2-butanone, 298.15 K
  solubility (mole fraction): 0.163
In 2-butanone, 300.65 K
  solubility (mole fraction): 0.177
In 2-butanone, 303.15 K
  solubility (mole fraction): 0.194
In 2-butanone, 305.65 K
  solubility (mole fraction): 0.21
In 2-butanone, 308.15 K
  solubility (mole fraction): 0.229
In 2-butanone, 310.65 K
  solubility (mole fraction): 0.247
In 2-butanone, 313.15 K
  solubility (mole fraction): 0.267
In 2-butanone, 315.65 K
  solubility (mole fraction): 0.288
In 2-butanone, 318.15 K
  solubility (mole fraction): 0.309
In DMF, 278.15 K
  solubility (mole fraction): 0.0741
In DMF, 280.65 K
  solubility (mole fraction): 0.0863
In DMF, 283.15 K
  solubility (mole fraction): 0.0997
In DMF, 285.65 K
  solubility (mole fraction): 0.114
In DMF, 288.15 K
  solubility (mole fraction): 0.131
In DMF, 290.65 K
  solubility (mole fraction): 0.148
In DMF, 293.15 K
  solubility (mole fraction): 0.168
In DMF, 295.65 K
  solubility (mole fraction): 0.191
In DMF, 298.15 K
  solubility (mole fraction): 0.214
In DMF, 300.65 K
  solubility (mole fraction): 0.241
In DMF, 303.15 K
  solubility (mole fraction): 0.27
In DMF, 305.65 K
  solubility (mole fraction): 0.302
In DMF, 308.15 K
  solubility (mole fraction): 0.338
In DMF, 310.65 K
  solubility (mole fraction): 0.376
In DMF, 313.15 K
  solubility (mole fraction): 0.416
In DMF, 315.65 K
  solubility (mole fraction): 0.458
In DMF, 318.15 K
  solubility (mole fraction): 0.504
In acetone, 278.15 K
  solubility (mole fraction): 0.0713
In acetone, 280.65 K
  solubility (mole fraction): 0.0796
In acetone, 283.15 K
  solubility (mole fraction): 0.0889
In acetone, 285.65 K
  solubility (mole fraction): 0.0986
In acetone, 288.15 K
  solubility (mole fraction): 0.109
In acetone, 290.65 K
  solubility (mole fraction): 0.12
In acetone, 293.15 K
  solubility (mole fraction): 0.133
In acetone, 295.65 K
  solubility (mole fraction): 0.145
In acetone, 298.15 K
  solubility (mole fraction): 0.159
In acetone, 300.65 K
  solubility (mole fraction): 0.174
In acetone, 303.15 K
  solubility (mole fraction): 0.189
In acetone, 305.65 K
  solubility (mole fraction): 0.205
In acetone, 308.15 K
  solubility (mole fraction): 0.222
In acetone, 310.65 K
  solubility (mole fraction): 0.24
In acetone, 313.15 K
  solubility (mole fraction): 0.259
In acetone, 315.65 K
  solubility (mole fraction): 0.279
In acetone, 318.15 K
  solubility (mole fraction): 0.299
In acetonitrile, 278.15 K
  solubility (mole fraction): 0.0318
In acetonitrile, 280.65 K
  solubility (mole fraction): 0.036
In acetonitrile, 283.15 K
  solubility (mole fraction): 0.0405
In acetonitrile, 285.65 K
  solubility (mole fraction): 0.0454
In acetonitrile, 288.15 K
  solubility (mole fraction): 0.0508
In acetonitrile, 290.65 K
  solubility (mole fraction): 0.0567
In acetonitrile, 293.15 K
  solubility (mole fraction): 0.0632
In acetonitrile, 295.65 K
  solubility (mole fraction): 0.0704
In acetonitrile, 298.15 K
  solubility (mole fraction): 0.0782
In acetonitrile, 300.65 K
  solubility (mole fraction): 0.0867
In acetonitrile, 303.15 K
  solubility (mole fraction): 0.0957
In acetonitrile, 305.65 K
  solubility (mole fraction): 0.106
In acetonitrile, 308.15 K
  solubility (mole fraction): 0.116
In acetonitrile, 310.65 K
  solubility (mole fraction): 0.128
In acetonitrile, 313.15 K
  solubility (mole fraction): 0.14
In acetonitrile, 315.65 K
  solubility (mole fraction): 0.154
In acetonitrile, 318.15 K
  solubility (mole fraction): 0.168
In ethanol, 278.15 K
  solubility (mole fraction): 0.043
In ethanol, 280.65 K
  solubility (mole fraction): 0.0493
In ethanol, 283.15 K
  solubility (mole fraction): 0.0563
In ethanol, 285.65 K
  solubility (mole fraction): 0.0639
In ethanol, 288.15 K
  solubility (mole fraction): 0.0725
In ethanol, 290.65 K
  solubility (mole fraction): 0.0815
In ethanol, 293.15 K
  solubility (mole fraction): 0.0914
In ethanol, 295.65 K
  solubility (mole fraction): 0.102
In ethanol, 298.15 K
  solubility (mole fraction): 0.115
In ethanol, 300.65 K
  solubility (mole fraction): 0.128
In ethanol, 303.15 K
  solubility (mole fraction): 0.142
In ethanol, 305.65 K
  solubility (mole fraction): 0.156
In ethanol, 308.15 K
  solubility (mole fraction): 0.173
In ethanol, 310.65 K
  solubility (mole fraction): 0.191
In ethanol, 313.15 K
  solubility (mole fraction): 0.209
In ethanol, 315.65 K
  solubility (mole fraction): 0.227
In ethanol, 318.15 K
  solubility (mole fraction): 0.247
In ethyl acetate, 278.15 K
  solubility (mole fraction): 0.0708
In ethyl acetate, 280.65 K
  solubility (mole fraction): 0.0787
In ethyl acetate, 283.15 K
  solubility (mole fraction): 0.0877
In ethyl acetate, 285.65 K
  solubility (mole fraction): 0.0968
In ethyl acetate, 288.15 K
  solubility (mole fraction): 0.106
In ethyl acetate, 290.65 K
  solubility (mole fraction): 0.117
In ethyl acetate, 293.15 K
  solubility (mole fraction): 0.129
In ethyl acetate, 295.65 K
  solubility (mole fraction): 0.141
In ethyl acetate, 298.15 K
  solubility (mole fraction): 0.155
In ethyl acetate, 300.65 K
  solubility (mole fraction): 0.169
In ethyl acetate, 303.15 K
  solubility (mole fraction): 0.184
In ethyl acetate, 305.65 K
  solubility (mole fraction): 0.2
In ethyl acetate, 308.15 K
  solubility (mole fraction): 0.216
In ethyl acetate, 310.65 K
  solubility (mole fraction): 0.234
In ethyl acetate, 313.15 K
  solubility (mole fraction): 0.251
In ethyl acetate, 315.65 K
  solubility (mole fraction): 0.272
In ethyl acetate, 318.15 K
  solubility (mole fraction): 0.293
In isopropanol, 278.15 K
  solubility (mole fraction): 0.0535
In isopropanol, 280.65 K
  solubility (mole fraction): 0.0607
In isopropanol, 283.15 K
  solubility (mole fraction): 0.0683
In isopropanol, 285.65 K
  solubility (mole fraction): 0.0773
In isopropanol, 288.15 K
  solubility (mole fraction): 0.0868
In isopropanol, 290.65 K
  solubility (mole fraction): 0.0972
In isopropanol, 293.15 K
  solubility (mole fraction): 0.109
In isopropanol, 295.65 K
  solubility (mole fraction): 0.121
In isopropanol, 298.15 K
  solubility (mole fraction): 0.134
In isopropanol, 300.65 K
  solubility (mole fraction): 0.148
In isopropanol, 303.15 K
  solubility (mole fraction): 0.164
In isopropanol, 305.65 K
  solubility (mole fraction): 0.18
In isopropanol, 308.15 K
  solubility (mole fraction): 0.198
In isopropanol, 310.65 K
  solubility (mole fraction): 0.218
In isopropanol, 313.15 K
  solubility (mole fraction): 0.238
In isopropanol, 315.65 K
  solubility (mole fraction): 0.259
In isopropanol, 318.15 K
  solubility (mole fraction): 0.281
In methanol, 278.15 K
  solubility (mole fraction): 0.0342
In methanol, 280.65 K
  solubility (mole fraction): 0.0392
In methanol, 283.15 K
  solubility (mole fraction): 0.0449
In methanol, 285.65 K
  solubility (mole fraction): 0.0516
In methanol, 288.15 K
  solubility (mole fraction): 0.0587
In methanol, 290.65 K
  solubility (mole fraction): 0.0668
In methanol, 293.15 K
  solubility (mole fraction): 0.076
In methanol, 295.65 K
  solubility (mole fraction): 0.0858
In methanol, 298.15 K
  solubility (mole fraction): 0.0969
In methanol, 300.65 K
  solubility (mole fraction): 0.109
In methanol, 303.15 K
  solubility (mole fraction): 0.121
In methanol, 305.65 K
  solubility (mole fraction): 0.136
In methanol, 308.15 K
  solubility (mole fraction): 0.151
In methanol, 310.65 K
  solubility (mole fraction): 0.168
In methanol, 313.15 K
  solubility (mole fraction): 0.186
In methanol, 315.65 K
  solubility (mole fraction): 0.205
In methanol, 318.15 K
  solubility (mole fraction): 0.224
In n-butanol, 278.15 K
  solubility (mole fraction): 0.0545
In n-butanol, 280.65 K
  solubility (mole fraction): 0.0615
In n-butanol, 283.15 K
  solubility (mole fraction): 0.0692
In n-butanol, 285.65 K
  solubility (mole fraction): 0.0775
In n-butanol, 288.15 K
  solubility (mole fraction): 0.0864
In n-butanol, 290.65 K
  solubility (mole fraction): 0.0963
In n-butanol, 293.15 K
  solubility (mole fraction): 0.107
In n-butanol, 295.65 K
  solubility (mole fraction): 0.118
In n-butanol, 298.15 K
  solubility (mole fraction): 0.13
In n-butanol, 300.65 K
  solubility (mole fraction): 0.143
In n-butanol, 303.15 K
  solubility (mole fraction): 0.157
In n-butanol, 305.65 K
  solubility (mole fraction): 0.171
In n-butanol, 308.15 K
  solubility (mole fraction): 0.187
In n-butanol, 310.65 K
  solubility (mole fraction): 0.203
In n-butanol, 313.15 K
  solubility (mole fraction): 0.22
In n-butanol, 315.65 K
  solubility (mole fraction): 0.239
In n-butanol, 318.15 K
  solubility (mole fraction): 0.259
In n-propanol, 278.15 K
  solubility (mole fraction): 0.0532
In n-propanol, 280.65 K
  solubility (mole fraction): 0.0597
In n-propanol, 283.15 K
  solubility (mole fraction): 0.0669
In n-propanol, 285.65 K
  solubility (mole fraction): 0.0751
In n-propanol, 288.15 K
  solubility (mole fraction): 0.0836
In n-propanol, 290.65 K
  solubility (mole fraction): 0.093
In n-propanol, 293.15 K
  solubility (mole fraction): 0.103
In n-propanol, 295.65 K
  solubility (mole fraction): 0.114
In n-propanol, 298.15 K
  solubility (mole fraction): 0.125
In n-propanol, 300.65 K
  solubility (mole fraction): 0.138
In n-propanol, 303.15 K
  solubility (mole fraction): 0.151
In n-propanol, 305.65 K
  solubility (mole fraction): 0.165
In n-propanol, 308.15 K
  solubility (mole fraction): 0.18
In n-propanol, 310.65 K
  solubility (mole fraction): 0.196
In n-propanol, 313.15 K
  solubility (mole fraction): 0.213
In n-propanol, 315.65 K
  solubility (mole fraction): 0.23
In n-propanol, 318.15 K
  solubility (mole fraction): 0.249
In toluene, 278.15 K
  solubility (mole fraction): 0.000979
In toluene, 280.65 K
  solubility (mole fraction): 0.00109
In toluene, 283.15 K
  solubility (mole fraction): 0.00119
In toluene, 285.65 K
  solubility (mole fraction): 0.00133
In toluene, 288.15 K
  solubility (mole fraction): 0.00146
In toluene, 290.65 K
  solubility (mole fraction): 0.00162
In toluene, 293.15 K
  solubility (mole fraction): 0.00178
In toluene, 295.65 K
  solubility (mole fraction): 0.00197
In toluene, 298.15 K
  solubility (mole fraction): 0.00217
In toluene, 300.65 K
  solubility (mole fraction): 0.00236
In toluene, 303.15 K
  solubility (mole fraction): 0.00259
In toluene, 305.65 K
  solubility (mole fraction): 0.00283
In toluene, 308.15 K
  solubility (mole fraction): 0.00309
In toluene, 310.65 K
  solubility (mole fraction): 0.0034
In toluene, 313.15 K
  solubility (mole fraction): 0.00367
In toluene, 315.65 K
  solubility (mole fraction): 0.00399
In toluene, 318.15 K
  solubility (mole fraction): 0.00435
